According to US20230271925A1, “NOVEL TNF ACTIVITY INHIBITOR COMPOUND, AND PHARMACEUTICALLY ACCEPTABLE SALT THEREOF” (ILAB, priority 2020, published 2023):
Marks after values point to notes of the source that are not given here.

Assays:
[1] = test system: TNF-induced death of C57BL/6 mice; assay: TNF-induced mouse lethality assay; type: in vivo; conditions: for Survival (%): C57BL/6 male mice, 20 or 40 mg/kg p.o. 30 min before hTNF 8 μg/kg + D-galactosamine 700 mg/kg i.p., 24 hours; for survival rate of mice compared to the control group: C57BL/6 mice, pre-treated p.o., TNF + D-galactosamine
Protocol: In this experiment, the TNF-induced mouse death inhibition activity by the compound of the present invention was investigated. To this end, mice were pretreated with the compound of the present invention, and the survival rate of the mice was measured against TNF-induced death.
In particular, after C57BL/6 mice were fasted for 24 hours, 100 μL of the compounds of Examples 2, 32, 39, 40, 44, 47, and 48 in a buffer composition of 10% DMSO in 90% PBS was orally administered at a concentration of 20 or 40 mg/kg. After 30 minutes, a mixed solution of human recombinant TNF 8 μg/kg and D-galactosamine 700 mg/kg in PBS buffer was intraperitoneally administered at 100 μL per mouse, the survival rate of mice was measured every 3 hours from the time of intraperitoneal administration and the experiment was terminated 24 hours later. The mice were divided into 5 groups, the experiment was repeated 5 times, and the Example compounds used for each experiment are as shown in FIG. 7(a, b).

RIP1 = RIP1 ubiquitination, immunoprecipitation with TNFR1 in human peripheral blood T cells; type: cell-based; conditions: compound 0.1 μM 24 hours, then TNF 10 minutes, vs hTNF alone
Protocol: Two experiments were conducted to examine the TNF-cell signal transduction inhibitory activity by the compound of the present invention. First, immunoprecipitation was performed to evaluate the ubiquitination of an upstream protein of the TNF signaling pathway, that is, RIP1.
In particular, human peripheral blood T cells were treated with the compound of Example 48 (0, 0.1 μM) for 24 hours followed by with TNF for 10 minutes, and then immunoprecipitation was performed with TNFR1 protein.

TNF-TNFR1 = TNF-TNFR1 (Homo sapiens, UniProt P01375); assay: TNF-TNFR1 binding inhibition, FRET assay; conditions: for IC50: FRET (HTRF ratio), 0.25 nM TNF, 0.25 nM His-labeled TNFR1
Protocol: (§1) In this experiment, the inhibitory activity of the compound of the present invention was evaluated using a fluorescence resonance energy transfer (FRET) assay to measure the binding of TNF-TNFR1 or TNF-TNFR2.
(§2) In particular, biotin-labeled 0.25 nM TNF, XL-665-labeled streptavidin, 0.25 nM His-labeled TNFR1, 1 nM His-labeled TNFR2, and Europium-Gold-labeled anti-his Ab were used. First, each 2 μL (10% DMSO) of the compounds of Examples 48 and 51 was added in 384 wells. After 4 μL of 0.25 nM TNF was added, 4 μL of each of 0.25 nM His-labeled TNFR1 or 1 nM His-labeled TNFR2 was added thereto and incubated at room temperature for 1 hour. After 1 hour incubation, 5 μL of XL-665-labeled streptavidin and 5 μL of Europium-Gold-labeled anti-his Ab were added and further incubated at room temperature. […] was measured at 622 nm and 665 nm. The reagent used at this time was prepared by dissolving in PPI-europium detection buffer.
(§3) First, binding inhibitory activity of the compounds of the present invention to TNF and TNFR1 or TNFR2 was evaluated at a single concentration ([…]) of the compounds.
(§4) Then, IC50 values were obtained with the various concentrations of the compounds of Examples 48 and 51. At this time, the value was confirmed through the HTRF ratio, and the HTRF ratio was calculated by the following formula.
(§5) IC50 values were statistically calculated using Prism 6 (GraphPad).

HEK-Blue TNF cells = assay: Inhibition of TNF response in HEK-Blue TNF cells (SEAP reporter gene assay); type: cell-based; conditions: Homo sapiens, TNF 0.2 ng/mL, absorbance 620 nm
Protocol: In this experiment, the TNF-inhibitory activity of the compound of the present invention was evaluated in HEK-Blue TNF cells. To this end, the transformed HEK-Blue TNF cells that respond specifically to the binding of TNF to TNFRs on the cell surface were treated with the compound of Example 48, followed by a reporter gene assay.
HEK-Blue TNF cells are human embryonic kidney cells that were transformed to express SEAP (secreted embryonic alkaline phosphatase) reporter gene having the binding site for activated NF-κB when TNF binds to TNFR on the cell surface and NF-κB is activated in the cell. […]
An experimental method was used in which SEAP, a reporter gene having the binding site for activated NF-κB in the intracellular signal transduction process, is expressed when human embryonic kidney cells, HEK-Blue TNF cells, are treated with recombinant TNF. In particular, SEAP is expressed when TNF (0.2 ng/mL) is added to HEK-Blue TNF cells, and the degree of color development is measured by treating the SEAP-specific QUANTI-Blue™ solution followed by reading absorbance at 620 nm to obtain IC50 value. The inhibition rate (%) of TNF was calculated by the following formula. […]
as §5

TNF-TNFR2 = TNF-TNFR2 (Homo sapiens, UniProt P01375); assay: TNF-TNFR2 binding inhibition, FRET assay; conditions: for IC50: FRET (HTRF ratio), 0.25 nM TNF, 1 nM His-labeled TNFR2
Protocol: as §1, §2, §3, §4, §5

[2] = test system: TNF-cell signal transduction pathway; assay: TNF-cell signal transduction, Western blot in L929 cells; type: cell-based, mouse; conditions: hTNF 10 ng/ml + compound 0.01, 0.1, 1, 10 μM, vs hTNF alone
Protocol: Second, the inhibition of TNF signal transduction activity of Example 48 was confirmed. In order to examine the TNF-cell signal transduction inhibitory activity by the compound of the present invention, Western blot analysis was performed on proteins of the signal transduction pathway, namely phospho-p65, phospho-IKKα/β, phospho-SAPK/JNK, and phospho-AKT.
In particular, hTNF alone (10 ng/ml) or a mixture of hTNF and the compound of Example 48 (0.01, 0.1, 1, 10 μM) was incubated for 30 minutes, and then the incubated mixture was applied to mouse fibroblast L929 cells for 10 minutes. After the treatment, Western blot analysis was performed for phospho-p65, phospho-IKKα/β, phospho-SAPK/JNK, and phospho-AKT.

[3] = test system: mouse fibroblast L929 cells; assay: TNF-induced apoptosis inhibitory activity in L929 cells (MTS assay); type: cell-based; conditions: TNF 20 ng/mL + actinomycin D, compound 0 to 40 μM, 24 hours, read-out: IC50, inhibition of TNF-induced apoptosis
Protocol: In this experiment, the TNF-induced apoptosis inhibitory activity by the compound of the present invention was investigated. To this end, mouse fibroblasts were treated with the chromenone and quinolone derivative compounds prepared in the above Examples, and then cell viability was measured by a conventionally known MTS assay.
Mouse fibroblast L929 cells were purchased from the American Type Culture Collection (ATCC Manassas, Va.), and then cultured in RPMI medium containing 10% Fetal Bovine Serum (FBS) and 1% antibiotics at the incubator in which 5% CO2 and humidity at 37° C. were maintained.
Mouse fibroblast L929 cells were treated with recombinant TNF and actinomycin D, a sensitizer, to induce apoptosis, with which an assay capable of confirming apoptosis inhibitory activity was established. In particular, apoptosis conditions were induced by adding actinomycin D as a sensitizer and TNF (20 ng/mL) to […], and then L929 cells were pretreated with the compounds of Examples 52, 54, and 55 at a concentration of 0 to 40 μM for 24 hours. After 24 hours, they were treated with MTS for 3 hours, and then the absorbance was measured at 490 nm to calculate IC50 values. % Inhibition of TNF was calculated by the following formula.
% Inhibition of TNF=(OD value of the group treated with the compound−OD value of the group treated with TNF and actinomycin D)/(OD value of the group treated with actinomycin D−OD value of the group treated with TNF and actinomycin D)×100
IC50 values were statistically calculated using Prism 6 (GraphPad) (IC50: 50% inhibitory concentration).

[4] = single concentration (10 PM), FIG. 4

Sequence of TNF-TNFR2 (P01375 77-233 limits assumed): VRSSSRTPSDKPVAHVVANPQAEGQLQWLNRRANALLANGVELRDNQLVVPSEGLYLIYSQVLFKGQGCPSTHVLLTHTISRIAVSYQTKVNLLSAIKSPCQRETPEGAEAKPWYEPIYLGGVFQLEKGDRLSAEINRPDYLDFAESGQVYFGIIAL
Sequence of TNF-TNFR1 (P01375 77-233 limits assumed): as above

O=C(O)c1c(-c2cc(F)ccc2F)[nH]c2cc(Cl)ccc2c1=O [Example 2, 2-(2,5-difluorophenyl)-3-carboxy-7-chloro-4-(1H)-quinolone]
Survival (%) [1]: 60%
survival rate of mice compared to the control group [1]: increased

O=c1c(O)c(-c2cc(F)ccc2F)oc2cc(Cl)ccc12 [Example 32, 7-chloro-2-(2,5-difluorophenyl)-3-hydroxy-4H-chromen-4-one]
Survival (%) [1]: 90 *** %
survival rate of mice compared to the control group [1]: increased

COc1ccc2c(=O)c(O)c(-c3cc(F)cc(F)c3)oc2c1 [Example 39, 2-(3,5-difluorophenyl)-3-hydroxy-7-methoxy-4H-chromen-4-one]
Survival (%) [1]: 40%
survival rate of mice compared to the control group [1]: increased

COc1c(-c2cc(F)ccc2F)oc2cc(Cl)ccc2c1=O [Example 40, 7-chloro-2-(2,5-difluorophenyl)-3-methoxy-4H-chromen-4-one]
Survival (%) [1]: 50 * %
survival rate of mice compared to the control group [1]: increased

COc1c(-c2cc(F)cc(F)c2)oc2cc(F)ccc2c1=O [Example 44, 2-(3,5-difluorophenyl)-7-fluoro-3-methoxy-4H-chromen-4-one]
Survival (%) [1]: 60 ** %
survival rate of mice compared to the control group [1]: increased

COc1ccc2c(=O)c(OC)c(-c3ccc(F)cc3F)oc2c1 [Example 47, 2-(2,4-difluorophenyl)-3,7-dimethoxy-4H-chromen-4-one]
Survival (%) [1]: 40 * %
survival rate of mice compared to the control group [1]: increased

O=C(O)c1c(-c2ccc(OCCOc3ccc(-c4oc5cc(Cl)ccc5c(=O)c4C(=O)O)c(F)c3)cc2F)oc2cc(Cl)ccc2c1=O [Example 48, 2,2′-((ethane-1,2-diylbis(oxy))bis(2-fluoro-4,1-phenylene))bis(7-chloro-4-oxo-4H-chromene-3-carboxylic acid)]
Survival (%) [1]: 50 * %
survival rate of mice compared to the control group [1]: increased
degree of RIP1 ubiquitination activated by TNF (RIP1): reduced
IC50 (TNF-TNFR1): 3.56 µM
binding inhibitory activity, TNF and TNFR1 (TNF-TNFR1; [4]): inhibit the binding
binding inhibitory effect compared with SPD304 and Quercetin, TNF-TNFR1 (TNF-TNFR1; [4]): higher binding inhibitory effect than SPD304
IC50 (HEK-Blue TNF cells): 9.67 µM
IC50 (TNF-TNFR2): 3.92 µM
binding inhibitory activity, TNF and TNFR2 (TNF-TNFR2; [4]): inhibit the binding
binding inhibitory effect compared with SPD304 and Quercetin, TNF-TNFR2 (TNF-TNFR2; [4]): higher binding inhibitory effect than SPD304
level of phospho-AKT [2]: reduced
level of phospho-IKKα/β [2]: reduced
level of phospho-SAPK/JNK [2]: reduced
level of phospho-p65 [2]: reduced

O=C(O)c1c(-c2ccc(OCCOCCOc3ccc(-c4oc5cc(Cl)ccc5c(=O)c4C(=O)O)c(F)c3)cc2F)oc2cc(Cl)ccc2c1=O [Example 51, 2,2′-(((oxybis(ethane-2,1-diyl))bis(oxy))bis(2-fluoro-4,1-phenylene))bis(7-chloro-4-oxo-4H-chromene-3-carboxylic acid)]
IC50 (TNF-TNFR1): 14.5 µM
binding inhibitory activity, TNF and TNFR1 (TNF-TNFR1; [4]): inhibit the binding
IC50 (TNF-TNFR2): 22.3 µM
binding inhibitory activity, TNF and TNFR2 (TNF-TNFR2; [4]): inhibit the binding

O=C(NCCNC(=O)c1c(-c2cc(F)ccc2F)oc2cc(Cl)ccc2c1=O)c1c(-c2cc(F)ccc2F)oc2cc(Cl)ccc2c1=O [Example 52, N,N′-(ethane-1,2-diyl)bis(7-chloro-2-(2,5-difluorophenyl)-4-oxo-4H-chromene-3-carboxamide)]
IC50 [3]: 1.48 µM

O=C(NCCCCNC(=O)c1c(-c2cc(F)ccc2F)oc2cc(Cl)ccc2c1=O)c1c(-c2cc(F)ccc2F)oc2cc(Cl)ccc2c1=O [Example 54, N,N′-(butane-1,4-diyl)bis(7-chloro-2-(2,5-difluorophenyl)-4-oxo-4H-chromene-3-carboxamide)]
IC50 [3]: 7.19 µM

O=C(c1c(-c2cc(F)ccc2F)oc2cc(Cl)ccc2c1=O)N1CCN(C(=O)c2c(-c3cc(F)ccc3F)oc3cc(Cl)ccc3c2=O)CC1 [Example 55, 3,3′-(piperazine-1,4-dicarbonyl)bis(7-chloro-2-(2,5-difluorophenyl)-4H-chromen-4-one)]
IC50 [3]: 7.63 µM
